Results reported in ChEMBL document CHEMBL1135112, “Shikonin derivatives: synthesis and inhibition of human telomerase” (Bioorg Med Chem Lett, 2002).
One block for each compound: values may come before it. Calls of active or inactive are those of the source. The rule behind the calls is not given here.

Assays:
A549 [1] = test: Tested in vitro for inhibitory effect on the growth of human A-549 cancer cell line; format: functional, cell-based
Bel-7402 = test: Tested in vitro for inhibitory effect on the growth of BEL -7402 cell line; format: functional, cell-based; conditions: Homo sapiens
HL-60 [2] = test: The compound was tested in vitro for its cytotoxicity against human HL-60 cancer cell line by MTT method at 1 uM concentration; Slight inhibition; format: functional, cell-based
K562 = test: Tested in vitro for inhibitory effect on the growth of K-562 cell line; format: functional, cell-based; conditions: Homo sapiens
MCF7 = test: Tested in vitro for inhibitory effect on the growth of MCF-7 cell line; format: functional, cell-based; conditions: Homo sapiens
P388 [3] = test: The compound was tested in vitro for its cytotoxicity against […] P-388 cancer cell line by MTT method at 1 uM concentration; No inhibition; format: functional, cell-based; conditions: Mus musculus
SGC-7901 = test: Tested in vitro for inhibitory effect on the growth of human gastric carcinoma SGC-7901 cell line; format: functional, cell-based
WI-38 = test: Tested in vitro for inhibitory effect on the growth of WI-38 cell line; No cytotoxicity; format: functional, cell-based, Homo sapiens
A549 [4] = test: The compound was tested in vitro for its cytotoxicity against human A-549 cancer cell line by MTT method at 1 uM concentration; No inhibition; format: functional, cell-based
HL-60 [5] = test: The compound was tested in vitro for its cytotoxicity against human HL-60 cancer cell line by MTT method at 1 uM concentration; Total inhibition; format: functional, cell-based
P388 [6] = test: The compound was tested in vitro for its cytotoxicity against […] P-388 cancer cell line by MTT method at 1 uM concentration; Total inhibition; format: functional, cell-based
A549 [7] = test: The compound was tested in vitro for its cytotoxicity against human A-549 cancer cell line by MTT method at 1 uM concentration; Slight inhibition; format: functional, cell-based
P388 [8] = test: The compound was tested in vitro for its cytotoxicity against […] P-388 cancer cell line by MTT method at 1 uM concentration; Slight inhibition; format: functional, cell-based; conditions: Mus musculus
A549 [9] = test: The compound was tested in vitro for its cytotoxicity against human A-549 cancer cell line by MTT method at 1 uM concentration; Significant inhibition; format: functional, cell-based
HL-60 [10] = test: The compound was tested in vitro for its cytotoxicity against human HL-60 cancer cell line by MTT method at 1 uM concentration; Significant inhibition; format: functional, cell-based
[11] = target: Telomerase reverse transcriptase (Homo sapiens, UniProt O14746); test: Tested for 50% inhibition against Telomerase
Chain of Telomerase reverse transcriptase (O14746 whole entry): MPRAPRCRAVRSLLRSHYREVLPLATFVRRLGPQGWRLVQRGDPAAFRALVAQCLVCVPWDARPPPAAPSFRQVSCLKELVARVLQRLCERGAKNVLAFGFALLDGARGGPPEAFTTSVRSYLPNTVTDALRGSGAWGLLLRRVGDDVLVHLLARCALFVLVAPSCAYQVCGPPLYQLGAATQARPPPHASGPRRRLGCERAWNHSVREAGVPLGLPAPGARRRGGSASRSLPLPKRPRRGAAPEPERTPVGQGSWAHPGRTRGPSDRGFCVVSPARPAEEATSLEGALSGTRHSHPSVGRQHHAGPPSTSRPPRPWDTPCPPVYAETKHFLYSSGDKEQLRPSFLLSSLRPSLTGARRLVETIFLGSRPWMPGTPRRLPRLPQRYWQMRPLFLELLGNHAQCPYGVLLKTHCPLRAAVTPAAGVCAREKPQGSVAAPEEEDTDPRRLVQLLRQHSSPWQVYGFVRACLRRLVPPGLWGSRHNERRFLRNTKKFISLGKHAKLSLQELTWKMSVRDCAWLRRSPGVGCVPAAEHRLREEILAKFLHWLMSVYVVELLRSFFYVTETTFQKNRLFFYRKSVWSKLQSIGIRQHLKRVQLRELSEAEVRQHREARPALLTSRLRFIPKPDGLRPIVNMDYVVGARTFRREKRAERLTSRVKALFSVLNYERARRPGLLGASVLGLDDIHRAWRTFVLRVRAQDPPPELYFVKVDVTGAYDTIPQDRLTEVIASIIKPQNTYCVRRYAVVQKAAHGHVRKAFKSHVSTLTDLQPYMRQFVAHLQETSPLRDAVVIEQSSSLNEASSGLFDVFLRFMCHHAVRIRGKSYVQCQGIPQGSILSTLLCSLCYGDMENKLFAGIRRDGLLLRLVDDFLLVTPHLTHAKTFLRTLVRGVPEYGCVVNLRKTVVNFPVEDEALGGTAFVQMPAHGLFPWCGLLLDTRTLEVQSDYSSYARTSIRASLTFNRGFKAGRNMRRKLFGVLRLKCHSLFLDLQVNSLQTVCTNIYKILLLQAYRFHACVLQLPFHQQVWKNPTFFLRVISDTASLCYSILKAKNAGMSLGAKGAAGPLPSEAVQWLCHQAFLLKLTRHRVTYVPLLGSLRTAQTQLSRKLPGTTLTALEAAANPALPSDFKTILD

[12] = target: T1, DNA polymerase I, thermostable (Thermus aquaticus, UniProt P19821); test: Tested for 50% inhibition against Taq DNA polymerase at the concentration of 10 uM; No inhibition
T1 sequence (P19821 whole entry): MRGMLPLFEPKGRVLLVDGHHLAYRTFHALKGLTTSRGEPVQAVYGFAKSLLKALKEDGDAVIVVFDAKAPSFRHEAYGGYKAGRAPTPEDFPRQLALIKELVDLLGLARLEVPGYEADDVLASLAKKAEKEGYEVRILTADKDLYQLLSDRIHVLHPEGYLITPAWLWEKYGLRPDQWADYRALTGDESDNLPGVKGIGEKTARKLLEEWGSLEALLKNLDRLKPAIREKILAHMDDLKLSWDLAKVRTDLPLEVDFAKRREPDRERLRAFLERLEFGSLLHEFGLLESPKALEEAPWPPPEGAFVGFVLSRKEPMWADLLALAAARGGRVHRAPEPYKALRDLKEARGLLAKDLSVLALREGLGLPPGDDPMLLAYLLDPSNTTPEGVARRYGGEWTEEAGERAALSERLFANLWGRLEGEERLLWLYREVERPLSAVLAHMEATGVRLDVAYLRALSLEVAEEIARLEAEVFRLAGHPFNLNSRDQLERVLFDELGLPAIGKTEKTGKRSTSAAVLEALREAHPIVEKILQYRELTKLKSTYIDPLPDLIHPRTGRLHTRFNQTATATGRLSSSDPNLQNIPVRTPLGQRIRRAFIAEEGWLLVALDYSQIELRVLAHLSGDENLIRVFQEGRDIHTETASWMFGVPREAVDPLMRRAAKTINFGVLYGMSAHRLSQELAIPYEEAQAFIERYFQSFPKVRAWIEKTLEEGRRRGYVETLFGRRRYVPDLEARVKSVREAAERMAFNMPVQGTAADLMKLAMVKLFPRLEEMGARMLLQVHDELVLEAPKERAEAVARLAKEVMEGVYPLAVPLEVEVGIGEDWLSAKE

[13] = target: T1, DNA polymerase I, thermostable; test: Tested for 50% inhibition against Taq DNA polymerase at the concentration of 20 uM; No inhibition
[14] = target: T1, DNA polymerase I, thermostable; test: Tested for 50% inhibition against Taq DNA polymerase at the concentration of 50 uM; No inhibition
HL-60 [15] = test: The compound was tested in vitro for its cytotoxicity against human HL-60 cancer cell line by MTT method at 1 uM concentration; No inhibition; format: functional, cell-based

- IC50 (A549 [1]): 390 µM
- IC50 (Bel-7402): 67 µM
- IC50 (K562): 31 µM
- IC50 (MCF7): 93 µM
- IC50 (SGC-7901): 49 µM
SMILES: CC(C)=CCC(OC(=O)c1ccc2ccccc2c1)C1=CC(=O)c2c(O)ccc(O)c2C1=O (centres undefined)
- Activity (HL-60 [2]): Slight inhibition
- Activity (P388 [3]): inactive
- IC50 (WI-38): No cytotoxicity
- Activity (A549 [4]): inactive

SMILES: CC1(C)CC[C@H](C2=CC(=O)c3c(O)ccc(O)c3C2=O)O1
- Activity (HL-60 [5]): Total inhibition
- Activity (P388 [6]): Total inhibition
- Activity (A549 [4]): inactive

SMILES: CC1(C)CC[C@@H](C2=CC(=O)c3c(O)ccc(O)c3C2=O)O1
- Activity (HL-60 [5]): Total inhibition
- Activity (P388 [6]): Total inhibition
- Activity (A549 [4]): inactive

SMILES: CC(C)=CC[C@H](O)C1=CC(=O)c2c(O)ccc(O)c2C1=O
- Activity (A549 [7]): Slight inhibition
- Activity (HL-60 [2]): Slight inhibition
- Activity (P388 [8]): Slight inhibition

SMILES: CCCCCCCCCCCC(=O)OC(CC=C(C)C)C1=CC(=O)c2c(O)ccc(O)c2C1=O (centres undefined)
- Activity (A549 [7]): Slight inhibition
- Activity (HL-60 [2]): Slight inhibition
- Activity (P388 [3]): inactive

SMILES: CCCC(=O)OC(CC=C(C)C)C1=CC(=O)c2c(O)ccc(O)c2C1=O (centres undefined)
- Activity (HL-60 [2]): Slight inhibition
- Activity (P388 [3]): inactive
- Activity (A549 [4]): inactive

SMILES: CC(C)=CCC(OC(=O)COCc1ccccc1)C1=CC(=O)c2c(O)ccc(O)c2C1=O (centres undefined)
- Activity (P388 [3]): inactive
- Activity (A549 [4]): inactive

- IC50 (A549 [1]): 39 µM
- IC50 (Bel-7402): 0.068 µM
- IC50 (K562): 29 µM
- IC50 (MCF7): 31 µM
- IC50 (SGC-7901): 0.29 µM
- IC50 [11]: 37.3 µM
- IC50 [12]: Not Active
- IC50 [13]: Not Active
- IC50 [14]: Not Active
SMILES: CC(=O)O[C@H](CC=C(C)C)C1=CC(=O)c2c(O)ccc(O)c2C1=O [ACETYLSHIKONIN]
- Activity (A549 [9]): Significant inhibition
- Activity (HL-60 [10]): Significant inhibition
- Activity (P388 [8]): Significant inhibition
- IC50 (WI-38): No cytotoxicity

SMILES: CC(C)=CCC(OC(=O)COc1ccc2ccccc2c1)C1=CC(=O)c2c(O)ccc(O)c2C1=O (centres undefined)
- Activity (HL-60 [2]): Slight inhibition
- Activity (P388 [3]): inactive
- Activity (A549 [4]): inactive

SMILES: CC(C)=CC[C@@H](O)C1=CC(=O)c2c(O)ccc(O)c2C1=O
- Activity (A549 [7]): Slight inhibition
- Activity (HL-60 [2]): Slight inhibition
- Activity (P388 [8]): Slight inhibition

SMILES: CC(C)=CCC(OC(=O)c1cccc2ccccc12)C1=CC(=O)c2c(O)ccc(O)c2C1=O (centres undefined)
- Activity (HL-60 [2]): Slight inhibition
- Activity (P388 [3]): inactive
- Activity (A549 [4]): inactive

- IC50 (A549 [1]): 0.016 µM
- IC50 (Bel-7402): 0.00017 µM
- IC50 (K562): 18 µM
- IC50 (MCF7): 250 µM
- IC50 (SGC-7901): 0.001 µM
SMILES: CC(C)=CCC(OC(=O)CCCCC(C)C)C1=CC(=O)c2c(O)ccc(O)c2C1=O (centres undefined)
- Activity (A549 [9]): Significant inhibition
- Activity (HL-60 [2]): Significant inhibition
- Activity (P388 [3]): inactive
- IC50 (WI-38): No cytotoxicity

SMILES: CC(C)=CCC(O)C1=CC(=O)c2c(O)ccc(O)c2C1=O (centres undefined)
- Activity (A549 [7]): Slight inhibition
- Activity (HL-60 [2]): Slight inhibition
- Activity (P388 [8]): Slight inhibition

SMILES: CC(C)=CCC(OC(=O)Cc1c[nH]c2ccccc12)C1=CC(=O)c2c(O)ccc(O)c2C1=O (centres undefined)
- Activity (HL-60 [2]): Slight inhibition
- Activity (P388 [3]): inactive
- Activity (A549 [4]): inactive

SMILES: CC(C)=CCC(OC(=O)c1ccccc1)C1=CC(=O)c2c(O)ccc(O)c2C1=O (centres undefined)
- Activity (HL-60 [15]): inactive
- Activity (P388 [3]): inactive
- Activity (A549 [4]): inactive

SMILES: CC(C)=CCC(OC(=O)c1cccnc1)C1=CC(=O)c2c(O)ccc(O)c2C1=O (centres undefined)
- Activity (HL-60 [2]): Slight inhibition
- Activity (P388 [3]): inactive
- Activity (A549 [4]): inactive
